Where two headings read alike, the source gives them in different places.
Assays:
human CB1 receptor = target: T1, human CB1 receptor (Homo sapiens, UniProt P21554); assay: CB1 radioligand competitive binding assay ([3H]CP 55,940 displacement)
T1 construct: host or cells: CHO-K1

human CB2 receptor = target: T2, human CB2 receptor (Homo sapiens, UniProt P34972); assay: CB2 radioligand competitive binding assay ([3H]CP 55,940 displacement); conditions: for Selectivity CB2: fold difference between CB1 and CB2 binding, printed in the column of the receptor with the higher binding affinity
T2 construct: host or cells: CHO-K1
T2 sequence (P34972 whole entry): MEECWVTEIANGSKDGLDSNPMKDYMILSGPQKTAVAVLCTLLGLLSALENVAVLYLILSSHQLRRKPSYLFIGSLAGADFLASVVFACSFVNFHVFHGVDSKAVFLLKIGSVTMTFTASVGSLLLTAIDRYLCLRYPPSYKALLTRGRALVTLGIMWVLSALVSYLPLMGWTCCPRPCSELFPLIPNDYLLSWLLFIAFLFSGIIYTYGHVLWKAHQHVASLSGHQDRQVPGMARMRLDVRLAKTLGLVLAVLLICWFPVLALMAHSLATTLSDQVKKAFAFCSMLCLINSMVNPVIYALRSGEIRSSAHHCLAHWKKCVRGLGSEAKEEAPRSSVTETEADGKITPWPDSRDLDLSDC
Description: Compounds of the present disclosure were tested for CB1 receptor binding affinity and for CB2 receptor binding affinity. As used herein, “binding affinity” is represented by the IC50 value, which was experimentally determined as described herein. The lower the IC50 value the higher the binding affinity.
The membranes were prepared from CHO-K1 (Chinese hamster ovary) cells stably transfected with the human CB2 receptor (Cat. #ES-111-C; Perkin Elmer, Boston, Mass.). The cells were grown adherently and maintained in Ham's F12 medium containing 10% fetal bovine serum (FBS), penicillin, streptomycin and geneticin (G418) at 37° C. in a humid atmosphere of 5% CO2 following the manufacturer's instructions.
For membrane preparation the cells were washed with PBS and scraped off the plates in cold homogenization buffer (25 mM HEPES (pH 7.4), 2 mM EDTA) containing protease inhibitor cocktail (Sigma Cat. #P8340). The cell suspension was homogenized with a Pro-PK-01200D Polytron Homogenizer (Pro Scientific) and then centrifuged for 30 min at 120,000×g. The supernatant was discarded and the pellet was re-suspended in the homogenization buffer and stored at −80° C. until the time of use.
In this experiment, 3H radiolabeled CP 55,940, i.e. [3H]CP 55,940 (Perkin Elmer, Boston, Mass.), was used as a radioligand for the CB2 receptor to determine the binding affinity of compounds for the CB2 receptor (Scheme 4; above).
The competition binding experiments (single dose and dose-response) were performed by incubating 0.6 nM of [3H]CP55,940 (specific activity 101 Ci/mmol, Perkin Elmer) and different concentrations of compounds disclosed herein with membranes prepared as above from CHO-K1 cells expressing human CB2 receptor (1 μg of protein/well), 50 mM Tris-HCl (pH 7.4), 5 mM MgCl2, 1 mM CaCl2, and 2 mg/mL BSA.
For the dose-response experiments the test compounds were sequentially diluted to provide the desired concentration range for the IC50 determination. In each case the compounds were pre-incubated with the membrane for 20 min, before adding the radioligand.
After incubation with the radioligand for 60 min at 37° C., the incubation was terminated by rapid filtration of assay mixture through MultiScreen®HTS^+96-well filter plates (Millipore, Cat. #MSFCNXB), pre-soaked for 60 min with 50 mM Tris-HCl (pH 7.4) containing 0.33% polyethylenimine (PEI). The nonspecific binding (NSB) was determined in the presence of 10 μM unlabelled CP55,940. After drying the filter plate at 50° C. for at least 60 min, the filter-bound radioactivity was determined by scintillation spectrometry using the 1450 MicroBeta Plate Counter (Perkin Elmer, Boston, MA).

[1] = 0.8 nM [3H]CP 55,940, CHO-K1 membranes expressing human CB1 receptor, dose-response, read-out: CB1 IC50
[2] = 0.6 nM [3H]CP55,940, CHO-K1 membranes expressing human CB2 receptor, dose-response, read-out: CB2 IC50

T1 sequence (P21554 whole entry): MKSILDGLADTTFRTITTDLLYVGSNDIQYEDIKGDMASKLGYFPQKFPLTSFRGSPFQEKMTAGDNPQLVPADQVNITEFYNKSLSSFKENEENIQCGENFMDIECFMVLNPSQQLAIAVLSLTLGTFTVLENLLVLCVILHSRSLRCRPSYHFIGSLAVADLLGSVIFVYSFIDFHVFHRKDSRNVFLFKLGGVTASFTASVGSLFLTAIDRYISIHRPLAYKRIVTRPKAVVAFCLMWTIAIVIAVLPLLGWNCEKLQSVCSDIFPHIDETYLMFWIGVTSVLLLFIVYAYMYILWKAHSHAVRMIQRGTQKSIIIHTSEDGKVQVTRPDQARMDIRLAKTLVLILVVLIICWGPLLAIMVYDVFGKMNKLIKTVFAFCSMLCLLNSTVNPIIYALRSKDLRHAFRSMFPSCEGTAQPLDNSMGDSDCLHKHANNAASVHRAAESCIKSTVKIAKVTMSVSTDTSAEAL

`CCCCCc1cc2c(c(O)c1C(=O)NCC)[C@@H]1C=C(C)CC[C@H]1C(C)(C)O2` [Compound 3b, N-ethyl-1-hydroxy-6,6,9-trimethyl-3-pentyl-6a,7,8,10a-tetrahydro-6H-benzo[c]chromene-2-carboxamide] was tested, and the IC50 (human CB1 receptor) was 500 to 990 nM, the IC50 (human CB2 receptor) was 100 to 490 nM and the “Selectivity CB2” value (human CB2 receptor) was 3.33 fold.

In the case of `CCCCCc1cc2c(c(O)c1C(=O)NC1CC1)[C@@H]1C=C(C)CC[C@H]1C(C)(C)O2` [Compound 6b, N-cyclopropyl-1-hydroxy-6,6,9-trimethyl-3-pentyl-6a,7,8,10a-tetrahydro-6H-benzo[c]chromene-2-carboxamide], the IC50 (human CB1 receptor) is reported as 100 to 490 nM, the IC50 (human CB2 receptor) is reported as under 100 nM and the “Selectivity CB2” value (human CB2 receptor) is reported as 9.08 fold.

For `CCCCCc1cc2c(c(O)c1C(=O)Nc1ccccc1)[C@@H]1C=C(C)CC[C@H]1C(C)(C)O2` [Compound 10b, 1-hydroxy-6,6,9-trimethyl-3-pentyl-N-phenyl-6a,7,8,10a-tetrahydro-6H-benzo[c]chromene-2-carboxamide], the IC50 (human CB1 receptor; [1]) was under 100 nM, the IC50 (human CB2 receptor; [2]) was under 100 nM and the “Selectivity CB2” value (human CB2 receptor) was 8.81 fold.

In the case of `CCCCCc1cc2c(c(O)c1C(=O)NCc1cccnc1)[C@@H]1C=C(C)CC[C@H]1C(C)(C)O2` [Compound 15b, 1-hydroxy-6,6,9-trimethyl-3-pentyl-N-(pyridin-3-ylmethyl)-6a,7,8,10a-tetrahydro-6H-benzo[c]chromene-2-carboxamide], the IC50 (human CB1 receptor; [1]) is reported as over 1000 nM, the IC50 (human CB2 receptor; [2]) is reported as under 100 nM and the “Selectivity CB2” value (human CB2 receptor) is reported as 19.07 fold.

For `CCCCCc1cc2c(c(O)c1C(=O)N1CCN(C(C)=O)CC1)[C@@H]1C=C(C)CC[C@H]1C(C)(C)O2` [Compound 36b, 1-(4-(1-hydroxy-6,6,9-trimethyl-3-pentyl-6a,7,8,10a-tetrahydro-6H-benzo[c]chromene-2-carbonyl)piperazin-1-yl)ethan-1-one], the IC50 (human CB1 receptor) was over 1000 nM, the “Selectivity CB1” value (human CB1 receptor; fold difference between CB1 and CB2 binding, printed in the column of the receptor with the higher binding affinity) was 1.10 fold and the IC50 (human CB2 receptor) was over 1000 nM.

In the case of `CCCCCc1cc2c(c(O)c1C(=O)N1CCOCC1)[C@@H]1C=C(C)CC[C@H]1C(C)(C)O2` [Compound 39b, (1-hydroxy-6,6,9-trimethyl-3-pentyl-6a,7,8,10a-tetrahydro-6H-benzo[c]chromen-2-yl)(morpholino)methanone], the IC50 (human CB1 receptor) is reported as 100 to 490 nM, the IC50 (human CB2 receptor) is reported as 100 to 490 nM and the “Selectivity CB2” value (human CB2 receptor) is reported as 1.53 fold.

In the case of `CCCCCc1cc2c(c(O)c1C(=O)N1CCCC1)[C@@H]1C=C(C)CC[C@H]1C(C)(C)O2` [Compound 41b, (1-hydroxy-6,6,9-trimethyl-3-pentyl-6a,7,8,10a-tetrahydro-6H-benzo[c]chromen-2-yl)(pyrrolidin-1-yl)methanone], the IC50 (human CB1 receptor) is reported as 100 to 490 nM, the IC50 (human CB2 receptor) is reported as 100 to 490 nM and the “Selectivity CB2” value (human CB2 receptor) is reported as 2.06 fold.

In the case of `CCCCCc1cc2c(c(O)c1C(=O)N1Cc3ccccc3C1)[C@@H]1C=C(C)CC[C@H]1C(C)(C)O2` [Compound 43b, (1-hydroxy-6,6,9-trimethyl-3-pentyl-6a,7,8,10a-tetrahydro-6H-benzo[c]chromen-2-yl)(isoindolin-2-yl)methanone], the IC50 (human CB1 receptor) is reported as over 1000 nM, the IC50 (human CB2 receptor) is reported as 100 to 490 nM and the “Selectivity CB2” value (human CB2 receptor) is reported as 8.33 fold.

With `CCCCCc1cc2c(c(O)c1C(=O)N(CC)CC)[C@@H]1C=C(C)CC[C@H]1C(C)(C)O2` [Compound 50b, N,N-diethyl-1-hydroxy-6,6,9-trimethyl-3-pentyl-6a,7,8,10a-tetrahydro-6H-benzo[c]chromene-2-carboxamide] the IC50 (human CB1 receptor) was 100 to 490 nM, the IC50 (human CB2 receptor) was under 100 nM and the “Selectivity CB2” value (human CB2 receptor) was 4.38 fold.

With `CCCc1cc2c(c(O)c1C(=O)NC)[C@@H]1C=C(C)CC[C@H]1C(C)(C)O2` [Compound 58b, 1-hydroxy-N,6,6,9-tetramethyl-3-propyl-6a,7,8,10a-tetrahydro-6H-benzo[c]chromene-2-carboxamide] the IC50 (human CB1 receptor) was over 1000 nM, the IC50 (human CB2 receptor) was over 1000 nM and the “Selectivity CB2” value (human CB2 receptor) was 6.87 fold.

— patent US20220340582A1, “CANNABINOID DERIVATIVES” (CANOPY GROWTH CORPORATION, priority 2019, published 2022)
